Reference: patent US20130150399A1, “INHIBITORS OF THE UNFOLDED PROTEIN RESPONSE AND METHODS FOR THEIR USE” (The Board of Trustees of the Leland Stanford Junior …, priority 2006, published 2013)

Tested on: 5×-UPRE luciferase reporter (XBP-1s)
Experiment: 5×-UPRE luciferase reporter assay, HT1080 cells
Type: cell-based, human
Protocol: HT1080 cells stably expressing the XBP-luciferase construct were grown in 60 mm dishes to 60-70% confluency. Following hypoxia treatment, cells were washed twice with PBS, lysed in 400 μl 1× reporter lysis buffer (RLB) (Promega, Madison Wis.) for 30 min at 24° C. Lysates (100 μl) were mixed with an equal volume of luciferase substrate (Promega), and assayed using a luminometer. For 5×-UPRE-luciferase reporter assays, cells were co-transfected with the appropriate reporter plasmid and a control plasmid (pSV40-beta-gal) using Lipofectamine 2000 (Invitrogen, San Diego, Calif.). Twenty-four hours after transfection, fresh media was added, and cells were treated with Tm or shifted to hypoxia. After treatment, cells were lysed in 1×RLB and analyzed for luciferase activity as described above. Beta-galactosidase activity was determined using the beta-galactosidase enzyme assay system (Promega).
A. XBP-luciferase reporter construct. Firefly luciferase was inserted downstream of the IRE1α splice site in human XBP-1 to enable the conditional translation of luciferase under ER stress in an IRE1α-dependent manner. B. Selective inhibition of the XBP-luciferase reporter by irestatin 9389. HT1080 human fibrosarcoma cells stably expressing the XBP-luciferase reporter or CMV-luciferase were cultured in the presence of Tm (4 μg/ml) and Tg (0.4 μM) and irestatin 9389 at the indicated concentrations. After 24 hours, luciferase activity was analyzed in an automated plate reader. For each cell line, values are expressed as the percent inhibition of the median for Tm/Tg-treated wells, corrected for background. C. Structure of irestatin 9389. […] Values are expressed as the fold increases over uninduced levels. […] Cells were harvested, lysed, and analyzed by immunoblotting with antisera specific for HIF-1α (top), XBP-1s (middle) or actin (bottom). […] Total RNA was analyzed by Northern blotting using radiolabeled probes specific for P58^IPK or DER-1. […]
Since these assays employed a chimeric XBP-luciferase substrate, we next determined whether irestatin 9389 could inhibit the function of endogenous XBP-1s. […]

SMILES: Cc1csc(NC(=O)CSc2nc3c(c(C(F)(F)F)c2C#N)CCC3)n1 [Compound 9389]
- diminution of hypoxia-induced UPRE luciferase response (48 hours of hypoxia (vehicle 170-fold)): more than 90%
- induction of 5×-UPRE luciferase activity over untreated cells (cells exposed to both Tm and irestatin 9389): < 4 fold
